Read-outs that look alike come from different tables or passages of the source.
Tests used:
[1] = system: IgG, B-cell subtypes, adverse events; settings: human, in vivo
Description: MS patients are treated with either ofatumumab or Ocrevus (ocrelizumab). Selected patients having psoriatic arthritis are monitored under a special study program. […] Some of them cannot take a disease-modifying antirheumatic drugs (DMARD) such as • Leflunomide (Arava), • Methotrexate (Otrexup, Rasuvo, Rheumatrex, Trexall) or • Sulfasalazine (Azulfidine).
Thus, they are treated with an immunosuppressant, i.e. one of • Azathioprine (Imuran, Azasan) or • Cyclosporine (Gengraf, Neoral, Sandimmune).

[2] = system: serum immunoglobulin (IgG); settings: cited from earlier work
total immunoglobulins = settings: over the controlled period of the studies, mainly driven by reduction in IgM; cited from earlier work
[3] = system: total B cells (CD19+ CD45+), CD20+ CD3+ T cells; assay: APLIOS Phase 2 study: B and T-cell subsets in blood by FACS; format: in vivo, human; settings: 20 mg s.c.
Description: APLIOS was a 12-week, open-label, Phase 2 bioequivalence study. Patients received ofatumumab 20 mg (0.4 mL) s.c. loading doses on Days 1, 7 and 14, and maintenance doses every 4 weeks from Week 4 via a prefilled syringe or an autoinjector pen (SensoReady). Changes in B and T-cell subsets were analysed longitudinally in blood samples of a group of patients using fluorescence-activated cell sorting (FACS).

[4] = system: Immunoglobulin G, Plasma/Serum; parameters: species or system human; settings: in vivo
Description: (§1) ASCLEPIOS I and II are double-blind, double-dummy, active comparator-controlled, parallel-group, innovative, adaptive design, multicentre trials. Patients were randomised (1:1) to receive either ofatumumab 20 mg sc injections every 4 weeks (after an initial loading regimen of 20 mg sc doses on Days 1, 7 and 14) or teriflunomide 14 mg orally once daily, for up to 30 months. The studies have flexible durations, with termination occurring in the blinded core treatment epoch according to pre-specified criteria. Patients aged 18-55 years with an Expanded Disability Status Scale (EDSS) score (according to Kurtzke, Neurology. 1983, November; 33(11): 1444-52) of 0-5.5 at screening who experienced ≥1 relapse in the past year or ≥2 relapses in the past 2 years or a positive gadolinium-enhancing (Gd+) MRI scan during the year before randomisation were included.
(§2) Serum IgG/IgM levels were monitored at baseline, Week (W) 4, W12 and every 12 weeks, see FIG. 1. […] Reference is made to FIG. 1.
• At each visit-window, only patients with a value at both Baseline and that visit-window are included.

[5] = parameters: species or system human; settings: in vivo
Description: as §1, §2

[6] = system: (total) IgG, B-cell subtypes; settings: human, in vivo
Description: Ofatumumab is administered s.c. to RRMS patients. If injection-related reactions occurs, symptomatic treatment is provided. For patients who experienced pain, redness or itching, hydrocortisone cream is applied after the injection to help with itching, redness and swelling. A pain reliever is also be used.

[7] = system: urinary tract infections, B-cell subtypes; settings: human, in vivo
From the text: A first group of patients is monitored after an ischemic stroke. A sub-group of the patients are expected to have difficulty with urinary leakage or are not able to empty their bladder completely because of muscle weakness. For these reasons, a catheter will be placed inside the bladder. However, there is an increased risk of urinary tract infections related to the use of a catheter. These infections will be treated with one of • Trimethoprim/sulfamethoxazole (Bactrim, Septra, others), • Fosfomycin (Monurol), • Nitrofurantoin (Macrodantin, Macrobid), • Cephalexin (Keflex) or • Ceftriaxone.
A second group of patients consists of ofatumumab-treated MS patients. A sub-group of the patients develops adverse events, including urinary tract infections. These infections are treated with one of • Trimethoprim/sulfamethoxazole (Bactrim, Septra, others), • Fosfomycin (Monurol), • Nitrofurantoin (Macrodantin, Macrobid), • Cephalexin (Keflex) or • Ceftriaxone.

MS patients = settings: cited from earlier work; for reduction in annualized relapse rate compared to teriflunomide: p<0.001
IgM = settings: in vivo; cited from earlier work

Substance: ocrelizumab
- adverse events (e.g. infections) after treatment with the immunosuppressant [1]: significantly more adverse events
- reduction of IgG levels ([2]; after two years (96 weeks), pooled OPERA): approx. 5%
- reduction in serum Ig levels, approximate mean rate ([2]; assessed over 5.5 years): 3-4 % per year
- change in total immunoglobulins (total immunoglobulins): decrease in total immunoglobulins

Substance: ofatumumab
- depletion of CD20+ CD3+ T cells [3]: rapidly and potently depleted
- depletion of memory B cells (CD19+ CD45+ CD27+) compared with naïve B cells [3]: more efficient depletion
- median total B-cell levels ([3]; by Day 7 through Day 14 of the loading regimen, maintained for remaining study duration): ≤ 5 cells/μL
- depletion in total B cells (CD19+ CD45+) ([3]; measured on Day 4 and Day 7): rapid and sustained depletion
- IgG decrease as compared with teriflunomide-treated patients [4]: less pronounced and shorter
- turning point at which the trend of decreasing IgG levels reverses [4]: 36 week
- incidence of infections [5]: Advantageous low incidence
- combined immunosuppression or toxicity of ofatumumab and hydrocortisone [6]: no evidence
- follicular B-cell subtype [6]: marked decrease
- marginal zone and germinal center B-cell subtypes [6]: less affected
- level of (total) IgG in patients with injection-related reactions versus without reactions and hydrocortisone ([6]; sc): comparable
- follicular B-cell subtype [7]: marked decrease
- management of urinary tract infections [7]: No significant difference
- marginal zone and germinal center B-cell subtypes [7]: less affected
- follicular B-cell subtype [1]: marked decrease
- level of IgG versus Ocrevus-treated patients [1]: significantly higher
- marginal zone and germinal center B-cell subtypes [1]: less affected
- reduction in annualized relapse rate compared to teriflunomide (MS patients; ASCLEPIOS I): 50.5%
- reduction in annualized relapse rate compared to teriflunomide (MS patients; ASCLEPIOS II): 58.5%
- suppression of gadolinium (Gd) T1 lesions compared to Aubagio (MS patients; in vivo): highly significant suppression
- relative risk reduction in 6-month CDP versus Aubagio (MS patients; pre-specified pooled analyses, p=0.012): 32.5%

Substance: rituximab
- effect on IgM levels (IgM): depression of IgM levels
